Experimental data taken from article PMC10263210, “Design, Synthesis and Biological Evaluation of Novel MDH Inhibitors Targeting Tumor Microenvironment” (Pharmaceuticals, 2023).

Assays:
[1] = molecular target: T1, human recombinant MDH2 (Homo sapiens, UniProt P40926); assay: MDH2 enzyme activity assay (oxaloacetate-dependent NADH oxidation); type: biochemical; details: means of three experiments
T1 construct: purchased BioVision
T1 sequence (P40926 25-338): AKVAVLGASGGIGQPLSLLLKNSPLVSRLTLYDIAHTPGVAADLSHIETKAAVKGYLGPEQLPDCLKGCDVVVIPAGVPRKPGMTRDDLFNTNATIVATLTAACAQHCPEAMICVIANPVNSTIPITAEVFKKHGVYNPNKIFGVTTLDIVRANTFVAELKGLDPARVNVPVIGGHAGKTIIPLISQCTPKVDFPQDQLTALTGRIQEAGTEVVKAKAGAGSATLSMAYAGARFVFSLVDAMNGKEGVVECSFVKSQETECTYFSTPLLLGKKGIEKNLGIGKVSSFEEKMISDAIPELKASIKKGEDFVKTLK
Text: (§1) To develop the dual inhibitors of MDH1 and MDH2, we screened the newly synthesized LW1497 derivatives using MDH and MDH2 enzyme assays. LW1497 was used as the positive control for the MDH1/2 dual inhibitor. We evaluated the ability of the synthesized compounds to inhibit human recombinant MDH1 and MDH2 enzymatic activity using an oxaloacetate-dependent NADH oxidation assay (Table 1, Table 2, Table 3, Table 4, Table 5 and Table 6). Our SAR optimization strategy focused on four different parts of LW1497: (A) the introduction of various groups at different positions on the amide phenyl ring; (B) the replacement of the 3-(4-(2,4,4-trimethylpentan-2-yl) alkyl chain; (C) the alteration of the amide portion; and (D) the modification of the oxypropanamide linker portion (Figure 1).
(§2) The activities of MDH1 and MDH2 were confirmed using an oxaloacetate-dependent NADH oxidation assay. Experiments were conducted using 100 mM of potassium phosphate buffer (pH 7.4) and human recombinant MDH1 (BioVision) and MDH2 (BioVision), and the results were obtained by measuring the absorbance at 340 nm. Enzyme activity was measured using a plate reader at a wavelength of 340 nm.

[2] = test system: CD73; assay: CD73 ELISA; type: cell-based, human; details: A549 cells; for CD73 level (%): hypoxic conditions, 0 μM = 100
Procedure: (§3) It has been reported that CD73 expression is induced by HIF-1α under hypoxic conditions. Therefore, we examined whether the expression of CD73 is inhibited by compound 50 under hypoxia in A549 lung cancer cells. […] To confirm the effect of compound 50 on CD73 expression, we performed ELISA for CD73.
The prepared samples were incubated with the same amount of antibody cocktail for 1 h at room temperature and then washed three times with PT buffer. After washing, the plates were developed by adding 100 µL of TMB development solution, and the reaction was stopped by adding 100 µL of stop solution. The amount of CD73 was quantitatively measured according to the instructions on the Human CD73 Simplestep ELISA kit (Abcam, Cambridge, UK).

[3] = molecular target: T2, human recombinant MDH1 (Homo sapiens, UniProt P40925); assay: MDH1 enzyme activity assay (oxaloacetate-dependent NADH oxidation); type: biochemical; details: means of three experiments
T2 construct: purchased BioVision
T2 sequence (P40925 1-334): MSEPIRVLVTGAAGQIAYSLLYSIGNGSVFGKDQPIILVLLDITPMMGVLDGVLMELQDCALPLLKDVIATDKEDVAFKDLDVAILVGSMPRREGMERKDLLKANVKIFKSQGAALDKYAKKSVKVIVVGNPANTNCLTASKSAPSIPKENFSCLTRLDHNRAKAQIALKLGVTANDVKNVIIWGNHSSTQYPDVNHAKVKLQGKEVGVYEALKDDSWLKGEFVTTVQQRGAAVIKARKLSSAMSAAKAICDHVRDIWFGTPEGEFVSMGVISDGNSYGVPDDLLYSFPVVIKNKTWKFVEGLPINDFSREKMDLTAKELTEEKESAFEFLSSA
Text: as §1, §2

[4] = test system: CD73; assay: Western blot of CD73 expression under hypoxia; type: cell-based, human; details: A549 cells
Procedure: as §3
(§4) Human lung carcinoma A549 cells were cultured in Dulbecco’s modified Eagle’s medium and H460 cells were cultured in RPMI 1640 medium containing 10% fetal bovine serum and 1% penicillin/streptomycin at 37 °C with a 5% Co2 hypoxia experimental condition. The cells were grown in the hypoxia chamber (1% O2, 94% N2, and 5% Co2 in a multigas incubator)
(§5) The cells were lysed with RIPA buffer (Millipore, Billerica, MA, USA) containing a protease inhibitor cocktail (Roche, Basel, Switzerland) for 15 min at 4 °C and centrifuged at 12,000 rpm for 10 min. The lysates were quantified using a protein assay kit (Bio-Rad, Hercules, CA, USA). The lysates were subjected to an SDS-PAGE analysis and transferred to PVDF membranes (Millipore, Billerica, MA, USA). The proteins were identified using the appropriate antibodies: HIF-1α (BD Transduction Laboratories, San Diego, CA, USA), pyruvate dehydrogenase kinase 1 (PDK1) (Cell Signaling, Danvers, MA, USA), GLUT1 and β-action (Santa Cruz Biotechnology, Danvers, MA, USA), and CD73 (Proteintech, Rosemont, IL, USA).

[5] = test system: A549 lung cancer cells; assay: Cell growth inhibition assay (SRB), A549; type: cell-based; details: Homo sapiens, means of three experiments, read-out: Cell Viability IC50 A549
Procedure: (§6) At the same time, we investigated the effect of the compounds on the growth inhibition of A549 and H460 lung cancer cells bearing KRAS and LKB1 mutations. […] Compound 50 containing a piperidine linker was selected for further analysis.
as §4
(§7) Cell growth inhibition was assessed using sulforhodamine B (SRB) as described in [34]. The cells were fixed with 10% formalin (Sigma-Aldrich) and stained with 0.4% SRB. Protein-bound dye was dissolved in 10 mM of Tris, and its optical density was measured at 540 nm.

[6] = test system: H460 lung cancer cells; assay: Cell growth inhibition assay (SRB), H460; type: cell-based; details: Homo sapiens, NCI-H460, means of three experiments, read-out: Cell Viability IC50 H460
Procedure: as §6, §4, §7

[7] = Lactate consumption in treated cells; type: cell-based; details: cells treated with compound
Text: In contrast, high aerobic glycolysis distinguishes cancer cells from normal cells and has been exploited to detect tumors in vivo. […] Cancer cells consume the secreted lactate to produce ATP through the TCA cycle and oxidative phosphorylation processes. Some cancer cells use lactate as a substrate for TCA intermediates via monocarboxylate transporters (MCT1/4) as well as for ATP production. Lactate can be converted to pyruvate using lactate dehydrogenase (LDH) and can be further converted to acetyl-CoA by […] for fatty acid synthesis.

[8] = test system: HIF-1α; assay: Western blot of HIF-1α and its target genes under hypoxia; type: cell-based, human; details: A549 cells, hypoxia
Procedure: Previously, it has been reported that the inhibition of MDH1 or MDH2 enzymes is related to HIF-1a expression levels. We investigated whether compound 50 decreases HIF-1α accumulation in A549 cells (Figure 6). […] Additionally, we confirmed that compound 50 suppressed the protein expression of HIF-1α target genes, such as GLUT1 and PDK1 (Figure 6), as clearly shown by the Western blot assay.
as §4, §5

- IC50 [1]: 2.24 ± 0.09 µM
- IC50 [3]: 3.33 ± 0.18 µM
- IC50 [5]: 3.94 ± 0.04 µM
- melting point: 139 to 140 °C
- IC50 [6]: 3.67 ± 0.06 µM
Structure (SMILES): CC(C)(C)CC(C)(C)c1ccc(N2CCC(C(=O)Nc3cccc(OC(F)(F)F)c3)CC2)cc1 [Compound 50, N-(3-(Trifluoromethoxy)phenyl)-1-(4-(2,4,4-trimethylpentan-2-yl)phenyl)piperidine-4-carboxamide]
- CD73 levels ([2]; ELISA): reduced CD73 levels in A549 cells in a dose-dependent manner
- CD73 level (%) ([2]; 2.5 μM): 90%
- CD73 level (%) ([2]; 5.0 μM): 84%
- CD73 level (%) ([2]; 10 μM): 68%
- CD73 expression increased by HIF-1α [4]: significantly decreased
- Lactate consumption [7]: did not change significantly
- HIF-1α accumulation [8]: decreased HIF-1α accumulation in a dose-dependent manner
- protein expression of HIF-1α target genes GLUT1 and PDK1 ([8]; Western blot): suppressed
